Measured values as given in patent publication US12390467B2, “Necroptosis inducers or autophagy inhibitors or a combination thereof” (The University of Toledo, priority 2018, dated 2025).

Columns and labels:
Format in all cases: cell-based
[1] = test system: MCF-7 (non-TNBC cell line); test: MTT cell viability assay, MCF-7; conditions: Homo sapiens, MCF7, 72 h, read-out: IC50 ± SD, MCF-7
Description: (§1) The following cancer and non-cancer cell lines were used in the initial cytotoxicity screening of the TPH104 compounds: triple negative breast cancer (TNBC): MDA-MB468, MDA-MB 231, and BT-20; non-TNBC: MCF-7 and ZR-75-1; ovarian: Ov2008; prostate: DU145; colon: HCT-116, S1, and LOVO; lung: H460; normal kidney: HEK-293; normal breast: HMEC; and normal colon: CRL-1459. All cells were cultured in Dulbecco's modified Eagle medium (DMEM), supplemented with 10% fetal bovine serum (FBS), and 1% penicillin/streptomycin (P/S). Cells were allowed to grow as adherent monolayers in T25 flasks in a humidified incubator with 5% CO2 at 37° C. for a period of 24 h, unless otherwise specified for certain experiments.
(§2) The MTT assay was used to determine the cytotoxicity of all of the compounds. Briefly, in a 96-well flat-bottom cell culture plate, the cells were seeded at a density between 3-5×10^3 cells/well (180 μl in each well) and incubated for 24 h (a hemocytometer was used for cell counting). The next day, the cells were incubated with different concentrations of the nine compounds (0, 0.1, 0.3, 1, 3, 10, 30, and 100 μM) for 72 h. After 72 h, 20 μl of 5 mg/ml of 3-(4,5-dimethylthiazol-2-yl)-2,5-diphenyltetrazolium bromide (MTT) was added to the plate and incubated with the cells for 3 h at 37° C. In this experiment, the living cells will reduce the soluble MTT dye to non-soluble purple formazan crystals. Following incubation, the media containing MTT removed via suction and 100 μL of 100% dimethyl sulfoxide (DMSO) was added to dissolve the formazan crystals. Subsequently, the plate was shaken for 2 minutes and the absorbance was measured at a wavelength of 570 nm using a SpectraMax iD3 Multi-Mode Microplate Reader (Molecular Devices, Sunnyvale, CA). The IC50 values of each compound were calculated and used to determine the selectivity ratio (IC50 in normal cells/IC50 in cancer cells) of each compound as previously described. Based on the results obtained from these experiments, the compound TPH104, which had the lowest IC50 value, was selected for further experiments.

[2] = test system: normal human mammary epithelial cells (HMEC); test: MTT cell viability assay, HMEC; conditions: Homo sapiens, HMEC; MTT, 72 h; Normal; read-out: IC50 ± SD, HMEC
Description: as §1, §2

[3] = test system: MDA-MB468 (TNBC cell line); test: MTT cell viability assay, MDA-MB468; conditions: Homo sapiens, MDA-MB-468, 72 h, read-out: IC50 ± SD, MDA-MB468
Description: as §1, §2

[4] = test system: MDA-MB231 (TNBC cell line); test: MTT cell viability assay, MDA-MB231; conditions: Homo sapiens, MDA-MB-231, 72 h, read-out: IC50 ± SD, MDA-MB231
Description: as §1, §2

TNBC cell lines = test: Cytotoxicity screening (MTT), TNBC cell lines overall; conditions: classification of Table 1 cytotoxicity data
Source text: To this end, several commercial databases were searched, and 17 similar molecules from the VitasM database were retrieved with considerable structural diversity in terms of the substitution on the aryl ring A attached to the thienopyrimidine scaffold and aryl ring B attached to hydrazino moiety. Further, the biological evaluation of the 17 molecules sheds light on the structural features deemed important for the selective cytotoxicity shown by this class of molecules. With this understanding, the 17 molecules were subjected to a screening protocol comprising of two TNBC, two non-TNBC, and one normal cell lines.
as §1, §2

[5] = test system: ZR-75-1 (non-TNBC cell line); test: MTT cell viability assay, ZR-75-1; conditions: Homo sapiens, ZR-75-1, 72 h, read-out: IC50 ± SD, ZR-75-1
Description: as §1, §2

BT-20 cells = test: Acridine orange assay; conditions: 20 μM, 12 h, vs vehicle
Description: The cell-permeant, nucleic acid binding dye, acridine orange (AO) was used to assess the effect of TPH104 on the activation of lysosomes. A 10 μg/ml stock solution was prepared using PBS. The TNBC cells were seeded in a 6-well plate as described in the cell cycle assay. After overnight incubation, cells were incubated with TPH104 (1, 2, 5 μM), vehicle or 20 uM of chloroquine (CQ, […]) for 12 h. The media was removed via suction and 1 ml of AO, diluted in 1:1000 in PBS, was added to each well and the plate was incubated for an additional 30 minutes. Cells were washed three times in PBS to remove excess dye. The cells from each well were captured from randomly selected fields using a fluorescent microscope (EVOS-FLC cell imaging system, Thermofisher scientific) at 40× to determine the AO fluorescence intensity which is positively correlated to lysosomal activation.

BT-20 or MDA-MB468 cells = test: Cellular reactive oxygen species (ROS) detection assay (H2DCFDA); conditions: 2 μM
Description: To assess the effect of TPH104 on the generation of ROS, a cell permeant, fluorogenic dye, 2′,7′-dichlorofluorescin diacetate, H2DCFDA, was used. A 5 mM stock solution was prepared using DMSO and PBS was used to prepare the 3 μM working solution of H2DCFDA. The TNBC cells were seeded in a 6-well plate as described in the cell cycle assay. After overnight incubation, cells were incubated with different TPH104 (1, 2, 5 μM) or vehicle for 12 h or with 2 μM of paclitaxel (positive control) for 2 h. The H2DCFDA dye (3 μM) was added to each well and the plate was incubated for an additional 30 minutes. Subsequently, cells were washed 3 times in PBS to remove excess H2DCFDA dye. Thereafter, cells from each well were captured from randomly selected fields using a fluorescent microscope (EVOS-FLC cell imaging system, Thermofisher scientific) at 40× to determine the 2′,7′-dichlorofluorescein (DCF) fluorescence intensity, which is positively correlated with the generation of ROS.

[6] = test system: RIP, p-RIP, MLKL, caspase 8 in MDA-MB468 cells; test: Western blot, necroptotic proteins, MDA-MB468; conditions: 100 μM
Description: The TNBC cells were seeded in a culture flask and incubated for 24 h. The cells were then incubated with different concentrations of the lead compounds and re-incubated for an additional 12 or 24 h. […] The bicinchoninic acid (BCA) was used to determine protein concentration in the cell extracts (G-BIOSCIENCES, St. Louis, MO, USA). […] The membrane was blocked using 5% milk in Tris-buffered Tween 20 saline for 30 minutes. The membrane was then incubated overnight with primary antibodies against Bak, Bax, Bcl-2, caspase9, caspase 3, caspase 7, PARP, cytochrome c, N-cadherin, E-cadherin, c-Myc, dishevelled segment polarity protein 3 (DVL3), dishevelled segment polarity protein 2 (DVL2), Vimentin, mitogen-activated protein kinase kinase (MAPKK also known as MEK1/2), β-catenin, low-density lipoprotein receptor-related protein 6 (LRP6), receptor-interacting protein kinase (RIP), phosphorylated RIP (p-RIP), mixed lineage kinase domain like pseudokinase(MLKL), Caspase 8, light chain 3 (LC3), lysosomal-associated membrane protein 1 (LAMP1), unc-51 like autophagy activating kinase 1 (ULK1), ras associated protein 7 (Rab7), ras associated protein 5 (Rab5), Beclin 1, mechanistic target of rapamycin (mTOR), tumor necrosis factor alpha (TNF-α), tumor necrosis factor receptor 1 (TNFR1), tumor necrosis factor receptor 2 (TNFR2), Fas-associated protein with death domain (FADD), Fas ligand (Fas), TNF-related apoptosis-inducing ligand (TRAIL), death receptor 5 (DR5), Tumor necrosis factor receptor type 1-associated DEATH domain (TRADD), receptor-interacting protein kinase 3 (RIP3), β-actin or GAPDH in 1:1000 dilution in 5% milk or 5% BSA at 4° C. Horseradish peroxidase-labeled (HRP) anti-rabbit or anti-mouse secondary antibodies (1:5,000 dilution) were added and incubated the next day for an additional 1 h. A ChemiDoc™ MP System imaging system from Bio-Rad (Hercules, CA, USA) was used for blots reading. Blots were used to obtain the protein bands, followed by quantification of the bands using image J software (NIH, Bethesda, MD, USA). All of the data were expressed as the ratio of β-actin or GAPDH.

Compound	IC50 [1] [µM]	IC50 [3] [µM]	IC50 [4] [µM]	IC50 [2] [µM]	potency compared to TPH104 (TNBC cell lines)	IC50 [5] [µM]	AO fluorescence intensity, negative control (BT-20 cells)	DCF fluorescence (ROS), positive control (BT-20 or MDA-MB468 cells)	expression of RIP, p-RIP, MLKL, and caspase 8 [6]
COc1cccc(/C=N/Nc2ncnc3scc(-c4ccccc4)c23)c1O [TPH104c]	> 100	0.18 ± 0.02	0.23 ± 0.01	> 100	equipotent to TPH104	10.7 ± 1.1	–	–	–
Cc1ccc(-c2csc3ncnc(N/N=C/c4ccccc4O)c23)cc1 [TPH104d]	> 100	2.22 ± 1.82	2.29 ± 0.16	33.1 ± 2.33	moderate potency compared to TPH104	6.05 ± 2.02	–	–	–
COc1cc(OC)c(OC)cc1/C=N/Nc1ncnc2scc(-c3ccccc3)c12 [TPH104e]	> 100	> 100	> 100	> 100	poor or no potency	> 100	–	–	–
COc1ccccc1/C=N/Nc1ncnc2scc(-c3ccccc3)c12 [TPH104f]	> 100	7.87 ± 1.53	29.38 ± 0.08	> 100	poor or no potency	> 100	–	–	–
COc1ccc(/C=N/Nc2ncnc3scc(-c4ccc(C)cc4)c23)c(OC)c1OC [TPH104g]	27.2 ± 2.92	27.3 ± 4.53	27.64 ± 0.15	> 100	poor or no potency	28.9 ± 2.61	–	–	–
COc1cccc(/C=N/Nc2ncnc3scc(-c4ccccc4)c23)c1OC [TPH104h]	63 ± 2.89	> 100	96.7 ± 0.14	> 100	poor or no potency	> 100	–	–	–
COc1ccc(/C=N/Nc2ncnc3scc(-c4ccccc4)c23)c(OC)c1 [TPH104i]	> 100	> 100	> 100	> 100	poor or no potency	> 100	–	–	–
CCOc1cc(/C=N/Nc2ncnc3scc(-c4ccccc4)c23)ccc1O [TPH104n]	> 100	21.7 ± 0.3	23.1 ± 1.88	> 100	poor or no potency	21.5 ± 3.67	–	–	–
COc1cc(OC)c(OC)cc1/C=N/Nc1ncnc2scc(-c3ccc(Cl)cc3)c12 [TPH104p]	> 100	55.9 ± 0.98	62.2 ± 8.83	> 100	poor or no potency	23 ± 0.59	–	–	–
CCN(CC)CCCC(C)Nc1ccnc2cc(Cl)ccc12 (stereo not drawn) [chloroquine, reference compound]	–	–	–	–	–	–	no significant change	–	–
CC(=O)O[C@H]1C(=O)[C@@]2(C)[C@H]([C@H](OC(=O)c3ccccc3)[C@]3(O)C[C@H](OC(=O)[C@H](O)[C@@H](NC(=O)c4ccccc4)c4ccccc4)C(C)=C1C3(C)C)[C@]1(OC(C)=O)CO[C@@H]1C[C@@H]2O [paclitaxel, reference compound]	–	–	–	–	–	–	–	significantly increased	–
necrostatin-1 [nec-1, reference compound]	–	–	–	–	–	–	–	–	significantly downregulated

Continued by falling IC50 [1], values first:

IC50 [1] [µM]	IC50 [3] [µM]	IC50 [4] [µM]	Compound	IC50 [2] [µM]	potency compared to TPH104 (TNBC cell lines)	IC50 [5] [µM]	AO fluorescence intensity, negative control (BT-20 cells)	DCF fluorescence (ROS), positive control (BT-20 or MDA-MB468 cells)	expression of RIP, p-RIP, MLKL, and caspase 8 [6]
23.5 ± 1.12	22.2 ± 0.78	18.6 ± 2.57	COc1cc(/C=N/Nc2ncnc3scc(-c4ccccc4)c23)ccc1O [TPH104q]	> 100	poor or no potency	21.4 ± 3.11	–	–	–
15.6 ± 6.5	0.91 ± 0.09	1.29 ± 0.52	Oc1cc(Br)ccc1/C=N/Nc1ncnc2scc(-c3ccccc3)c12 [TPH104k]	> 100	moderate potency compared to TPH104	6.07 ± 5.18	–	–	–
6.96 ± 1.15	0.44 ± 0.26	0.28 ± 0.06	Oc1ccccc1/C=N/Nc1ncnc2scc(-c3ccc(Cl)cc3)c12 [TPH104a]	27.9 ± 8.95	comparable potency to that of TPH104	2.29 ± 0.23	–	–	–
6.59 ± 0.58	1.47 ± 0.84	0.78 ± 0.38	Oc1ccc(/C=N/Nc2ncnc3scc(-c4ccccc4)c23)c(O)c1 [TPH104l]	> 100	moderate potency compared to TPH104	8.68 ± 1.04	–	–	–
2.84 ± 0.96	0.56 ± 0.34	0.78 ± 0.28	Oc1ccccc1/C=N/Nc1ncnc2scc(-c3ccccc3)c12 [TPH104j]	4.52 ± 1.38	moderate potency compared to TPH104	3.42 ± 1.53	–	–	–
1.52 ± 0.57	0.23 ± 0.05	0.25 ± 0.02	Oc1c(/C=N/Nc2ncnc3scc(-c4ccccc4)c23)cc2c3c1CCCN3CCC2 [TPH104b]	> 100	equipotent to TPH104	1.18 ± 0.53	–	–	–
1.22 ± 0.6	0.56 ± 0.24	0.43 ± 0.19	Cc1ccc(-c2csc3ncnc(N/N=C/c4ccc(C)cc4O)c23)cc1 [TPH104o]	> 100	moderate potency compared to TPH104	1.04 ± 0.54	–	–	–
